Measurements published in publication PMC6017325, “Cell Penetrating Capacity and Internalization Mechanisms Used by the Synthetic Peptide CIGB-552 and Its Relationship with Tumor Cell Line Sensitivity” (Molecules : A Journal of Synthetic Chemistry and Natural …, 2018).

Experiments:
COMMD1 protein = target: T1, COMMD1 protein (Homo sapiens, UniProt Q8N668); assay: Protein complementation assay (PCA), Venus; assay type: cell-based; conditions: MCF-7 and H460 cells co-transfected with Venus 1 / Venus 2 plasmids containing COMMD1 or L2; confocal microscopy
T1 construct: Venus fragment (Venus 1 or Venus 2); expressed in transfected cells; host or cells: MCF-7 and H460 cells, co-transfected with pCDNA3.1 Venus 1 / Venus 2 plasmids using Lipofectamine 2000
Method: L2 peptide, which was chemically modified in its primary structure to generate the CIGB-552, was used for the protein complementation assay. Cells were seeded in 12-well plates containing round coverslips (1 × 10^5 cells/well) and cultured in either DMEM or RPMI supplemented with Glutamax, 10% (v/v) FBS, at 37 °C for 24 h. Cells were co-transfected with the plasmids pCDNA3.1 Venus 1 and pCDNA3.1 Venus 2 each one containing either COMMD1 protein or L2 peptide. Transfection was performed with Lipofectamine 2000 (Thermo Fisher, Waltham, MA, USA) using a ratio of 1:2 DNA:lipofectamine ([…]). […]
All images were taken using laser confocal microscope Leica TCS SP5 equipped with a 63X NA 1.42 oil immersion objective (Leica Microsystems, Wetzlar, Germany). […] Quantification of the number of fully loaded cells was performed using 10 single optical sections for each cell line by using the Manual Counting plugin provided in Icy 1.9.5.1v imaging software. In order to assess fluorescence intensity both in cytoplasm and nuclei, images were taken in identical conditions (laser power, photomultiplier voltage, line and frame average and zoom) for all cell lines and 10 single optical sections were used for the analysis. […]

H460 [1] = conditions: H460 cell line; read-out: cytotoxicity, IC50 value; cited from earlier work
Description: Table 1 CIGB-552 cytotoxicity in H460, HT-29 and MCF-7 cell lines (expressed by the IC50 value in μM); D-amino acids are indicated in small and italic characters. | column: H460

HT-29 [2] = assay: Internalization assay, flow cytometry, HT-29; assay type: cell-based, human; conditions: FITC-conjugated CIGB-552 5 and 50 μM, 1 h
Method: (§1) Cells were seeded in 12-well plates (1 × 10^5 cells/well) and cultured in either D-MEM or RPMI supplemented with Glutamax, 10% (v/v) FBS, at 37 °C for 24 h. For those samples where internalization was analyzed by microscopy, round coverslips were placed into the wells prior to cell seeding. Subsequently, FITC-conjugated CIGB-552, was added to the cells to a final concentration of 5 μM or 50 μM and was incubated for 1 h at either 4 °C or 37 °C. For flow cytometry readout, culture medium was removed, cells were washed using phosphate-buffered saline (PBS) and surface-bound FITC-peptide was quenched with 0.4% (w/v) Trypan Blue solution. Cells were trypsinized and samples were acquired using Cyan ADP Flow Cytometer equipped with a 488 nm laser and a FL1 emission filter (530/40 nm). For data acquisition and analysis Summit v4.3 (Beckman Coulter, Fullerton, CA, USA) and FlowJo v.7.6.5 software (BD, Ashland, OR, USA) were used. For microscopy assays, cells were fixed in 4% (w/v) paraformaldehyde (PFA) for 15min, permeabilized using 0.2% (v/v) Tween 20 solution in PBS, and nuclei were stained using TOPRO-3 (1 μM, Life Technologies) and CellMask^TM membrane marker (1:2000, Life Technologies).
(§2) Data was expressed as the mean ± Standard Deviation of triplicates of one representative experiment, three independent experiments were executed. […]

MCF-7 [3] = conditions: MCF-7 cell line; read-out: cytotoxicity, IC50 value; cited from earlier work
Description: Table 1 CIGB-552 cytotoxicity in H460, HT-29 and MCF-7 cell lines (expressed by the IC50 value in μM); D-amino acids are indicated in small and italic characters. | column: MCF-7

H460 [4] = assay: Internalization assay, flow cytometry, H460; assay type: cell-based, human; conditions: FITC-conjugated CIGB-552 5 and 50 μM, 1 h
Method: as §1
Data was expressed as the mean ± Standard Deviation of triplicates of one representative experiment, three independent experiments were executed. Statistic calculations were performed using Statistica software (STATSOFT, Hamburg, Germany). Differences were considered statistically significant when p < 0.05 using Mann-Whitney U Test.

MCF-7 [5] = assay: Internalization assay, flow cytometry, MCF-7; assay type: cell-based, human; conditions: FITC-conjugated CIGB-552 5 and 50 μM, 1 h
Method: as §1, §2

HT-29 [6] = conditions: HT-29 cell line; read-out: cytotoxicity, IC50 value; cited from earlier work
Description: Table 1 CIGB-552 cytotoxicity in H460, HT-29 and MCF-7 cell lines (expressed by the IC50 value in μM); D-amino acids are indicated in small and italic characters. | column: HT-29

[7] = MFI at 4 °C referred to MFI at 37 °C

T1 sequence (Q8N668 whole entry, the tested form may be a part): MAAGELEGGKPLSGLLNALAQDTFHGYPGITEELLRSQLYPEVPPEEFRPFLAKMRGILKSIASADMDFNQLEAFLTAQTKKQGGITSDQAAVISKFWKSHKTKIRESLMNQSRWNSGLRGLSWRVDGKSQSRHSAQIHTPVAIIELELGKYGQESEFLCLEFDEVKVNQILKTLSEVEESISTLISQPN

Substance	in situ interaction with COMMD1 (fluorescence emission of Venus protein) (COMMD1 protein)	IC50 (H460 [1]) [µM]	temperature effect on internalization (HT-29 [2]; 4 °C versus 37 °C)	contribution of the transduction mechanism to internalization (HT-29 [2]; [7])	IC50 (MCF-7 [3]) [µM]	temperature effect on internalization (H460 [4]; 4 °C versus 37 °C)	internalization levels (median fluorescent intensity, MFI) (H460 [4]; 37 °C, surface-bound peptide quenched with 0.4% Trypan Blue)	contribution of the transduction mechanism to internalization (H460 [4]; [7])	temperature effect on internalization (MCF-7 [5]; 4 °C versus 37 °C)	contribution of the transduction mechanism to internalization (MCF-7 [5]; [7])	IC50 (HT-29 [6]) [µM]
HARIKPTFRRLKWKYKGKFW [L2]	likely to interact	–	–	–	–	–	–	–	–	–	–
Ac-HARIKpTFRRlKWKYKGKFW [CIGB-552, twenty-amino-acid novel synthetic peptide, AMP-derived, cell penetrating, pro-apoptotic through COMMD1]	–	23 ± 8	higher reduction in internalization levels	less than 50%	338 ± 39	higher reduction in internalization levels	highest internalization levels	less than 50%	reduction in the internalization	more than 50%	166 ± 66
